Test results from paper PMC6017932, “Synthesis of Selenium-Quinone Hybrid Compounds with Potential Antitumor Activity via Rh-Catalyzed C-H Bond Activation and Click Reactions” (Molecules : A Journal of Synthetic Chemistry and Natural …, 2017).

Columns and labels:
[1] = tested on: HL-60 (human promyelocytic leukemia cells); assay: MTT cytotoxicity, HL-60 cells; type: cell-based; details: 72 h exposure, three independent experiments, read-out: Cytotoxic activity IC50 (95% CI) HL-60
Procedure: (§1) Compounds were evaluated for antitumor activity in cell culture in vitro using several human cancer cell lines obtained from the National Cancer Institute, NCI (Bethesda, MD, USA). […] The L929 cells were cultivated under standard conditions in DMEM with Earle’s salts. […] At the end of the incubation time (72 h), the plates were centrifuged and the medium was replaced by fresh medium (200 μL) containing 0.5 mg/mL MTT. After 3 h, the MTT formazan product was dissolved in DMSO (150 μL) and the absorbance was measured using a multiplate reader (Spectra Count, Packard, ON, Canada). The impact of compounds on cell proliferation was quantified as the percentage of control absorbance of the reduced dye at 550 nm. All cell culture based studies were performed in triplicate. All cells were mycoplasma-free.

[2] = tested on: PC3 (human prostate cancer cells); assay: MTT cytotoxicity, PC3 cells; type: cell-based; details: 72 h exposure, three independent experiments, read-out: Cytotoxic activity IC50 (95% CI) PC3
Procedure: as §1

[3] = tested on: NCIH-460 (human lung cells); assay: MTT cytotoxicity, NCIH-460 cells; type: cell-based; details: 72 h exposure, three independent experiments, read-out: Cytotoxic activity IC50 (95% CI) NCIH-460
Procedure: as §1

[4] = tested on: HCT-116 (human colon carcinoma cells); assay: MTT cytotoxicity, HCT-116 cells; type: cell-based; details: 72 h exposure, three independent experiments, read-out: Cytotoxic activity IC50 (95% CI) HCT-116
Procedure: as §1

[5] = tested on: SF295 (human glioblastoma cells); assay: MTT cytotoxicity, SF295 cells; type: cell-based; details: 72 h exposure, three independent experiments, read-out: Cytotoxic activity IC50 (95% CI) SF295
Procedure: as §1

[6] = tested on: L929 (murine fibroblasts normal cells); assay: MTT cytotoxicity, L929 normal cells; type: cell-based, mouse; details: normal cell line, 72 h exposure, three independent experiments, read-out: Cytotoxic activity IC50 (95% CI) L929
Procedure: as §1

3-Bromo-2,2-dimethyl-4-(4-((p-tolylselanyl)methyl)-1H-1,2,3-triazol-1-yl)-3,4-dihydro-2H-benzo[h]-chromene-5,6-dione [Compound 21]
IC50 [1]: 1 µM
IC50 [2]: 1.77 µM
IC50 [3]: 1.49 µM
IC50 [4]: > 8 µM
IC50 [5]: 1.63 µM
IC50 [6]: 1.28 µM
